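Results reflect a 48-hour exposure of cells in 96-well plates to compound at five concentrations. GI50 marks 50% less growth. Definition used: TGI = concentration required for complete inhibition of growth.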
Tests used:
Assay in all cases: NCI anticancer screen, dose series, 48 h
DU-145 prostate = system: DU-145 prostate
SK-MEL-2 melanoma = system: SK-MEL-2 melanoma
786-0 renal = system: 786-0 renal
K-562 leukemia = system: K-562 leukemia
LOX IMVI melanoma = system: LOX IMVI melanoma
NCI-H226 lung = system: NCI-H226 lung
SNB-75 CNS = system: SNB-75 CNS
EKVX NSCLC = system: EKVX NSCLC
SF-295 CNS = system: SF-295 CNS
UACC-257 melanoma = system: UACC-257 melanoma

| SMILES | GI50 (DU-145 prostate) | TGI (DU-145 prostate) | GI50 (SK-MEL-2 melanoma) | TGI (SK-MEL-2 melanoma) | GI50 (786-0 renal) | TGI (786-0 renal) | GI50 (K-562 leukemia) | TGI (K-562 leukemia) | GI50 (LOX IMVI melanoma) | TGI (LOX IMVI melanoma) | GI50 (NCI-H226 lung) | TGI (NCI-H226 lung) | GI50 (SNB-75 CNS) | TGI (SNB-75 CNS) | GI50 (EKVX NSCLC) | TGI (EKVX NSCLC) | GI50 (SF-295 CNS) | TGI (SF-295 CNS) | GI50 (UACC-257 melanoma) | TGI (UACC-257 melanoma) |
| --- | --- | --- | --- | --- | --- | --- | --- | --- | --- | --- | --- | --- | --- | --- | --- | --- | --- | --- | --- | --- |
| O=c1oc2ccc(I)cc2c(=O)n1-c1ccc(Br)cc1F | 1.04 µM | 28.8 µM | 0.385 µM | 2.29 µM | 2.42 µM | 7.12 µM | 0.536 µM | > 71.7 µM | 0.626 µM | 5.86 µM | 1.27 µM | 4.39 µM | 0.374 µM | 2.48 µM | 1.34 µM | 7.11 µM | 1.72 µM | 3.41 µM | 0.735 µM | 5.02 µM |
| COC(COC(N)=O)C1=C(N2CC2)C(=O)C(C)=C(N2CC2)C1=O (stereo not given) | – | 0.0264 µM | – | 0.492 µM | – | 0.186 µM | – | 1.76 µM | – | 0.326 µM | – | 0.299 µM | – | 0.322 µM | – | 1.24 µM | – | 0.413 µM | – | 0.579 µM |
| O=C1N[C@@H]2[C@@H](O)[C@@H](O)[C@H](O)C[C@H]2c2cc3c(c(O)c21)OCCO3 | 0.229 µM | 0.84 µM | 0.286 µM | 1.06 µM | 0.293 µM | 2.08 µM | 0.13 µM | 11.2 µM | 0.167 µM | 0.444 µM | 0.273 µM | 1.08 µM | 0.466 µM | 2.62 µM | 0.323 µM | 1.85 µM | 0.388 µM | 2.65 µM | 0.34 µM | 1.97 µM |
| O=C(NCCCCN1CCOCC1)c1cc2ccccc2o1 | > 100 µM | > 100 µM | > 100 µM | > 100 µM | > 100 µM | > 100 µM | > 100 µM | > 100 µM | > 100 µM | > 100 µM | > 100 µM | > 100 µM | > 100 µM | > 100 µM | > 100 µM | > 100 µM | > 100 µM | > 100 µM | > 100 µM | > 100 µM |
| CCOC(=O)C1=CCCC[C@H]1S(=O)(=O)Nc1ccc(F)cc1Cl | 25.4 µM | > 100 µM | 21 µM | 83.8 µM | 32.9 µM | > 100 µM | 26.4 µM | > 100 µM | 22.7 µM | > 100 µM | 26.7 µM | > 100 µM | 25.1 µM | > 100 µM | 26.8 µM | > 100 µM | 32.7 µM | > 100 µM | 35.8 µM | > 100 µM |

From PubChem BioAssay (NCI)
